Reference: article PMC11809415 (The Journal of Cell Biology, 2025)

How the values were obtained:
[1] = test system: actin-dependent morphogenesis; conditions: certain experimental systems: yeast, Drosophila, C. elegans, zebrafish, mammalian cells; ref Courtemanche et al., 2016; Spracklen et al., 2014; Ono, 2024; Xu and Du, 2021; Flores et al., 2019; cited from earlier work
From the text: (§1) To minimize steric clashes of large probes, small fluorophore-labeled peptides have been developed. The most commonly used is Lifeact, a 17-amino acid peptide derived from the N-terminus of the Saccharomyces cerevisiae actin-binding protein 140 (Abp140).

actin filaments = conditions: ref Belyy et al., 2020, Kumari et al.; cited from earlier work
From the text: as §1

[2] = test system: actin (ADP-ribosylation by TcART, Photorhabdus luminescens); experiment: ADP-ribosylation of actin by TcART in presence of actin-binding peptides; format: biochemical, rabbit skeletal muscle α-actin; conditions: for ADP-ribosylation level: relative to no peptide = 1, […] actin, 314 pM TcART, 10 min 37°C
Method: (§2) Rabbit skeletal muscle α-actin was purified from muscle acetone powder (Pel-Freez Biologicals) as described in [Merino et al. (2018)] and stored in 50 μl aliquots at −70°C.
TcART, the ADP-ribosyltransferase from P. luminescens Tc toxin, was purified from E. coli BL21-CodonPlus(DE3)-RIPL harboring the plasmid pB656 as described previously ([Belyy et al., 2022]).
A total of 8-μl mixtures of 2 μg (4.8 μM final concentration) actin and actin-binding peptides at specified concentrations were preincubated for 5 min at room temperature in the buffer containing 1 mM NAD, 20 mM Tris pH 8, 150 mM NaCl, and 1 mM MgCl2. The ADP ribosylation reaction was initiated by the addition of 0.2 ng (314 pM) of TcART to the mixture. After 10 min of incubation at 37°C, the reaction was stopped by adding Laemmli sample buffer and heating the sample at 95°C for 5 min. The components of the mixture were separated by SDS-PAGE, blotted onto a polyvinylidene difluoride (PVDF) membrane using a Trans-Blot Turbo Transfer System (Bio-Rad), and visualized using a combination of the His-tagged ADP-ribose binding protein at the concentration of 0.01 mg/ml and HisProbe-HRP conjugate. The level of actin ADP-ribosylation was quantified by densitometry using ImageJ.

F-actin [3] = experiment: Actin bundling assay using low-speed centrifugation (10,000 g); format: biochemical, rabbit skeletal muscle α-actin; conditions: for F-actin in the pellet: 10 μM actin filaments, 5 min RT, 10,000 g
Method: as §2
8 μl of actin filaments at 10 μM were mixed with peptides at the specified concentration, incubated for 5 min at room temperature, and spun down at 10,000 g for 10 min at 4°C. Aliquots of the supernatant and resuspended pellet fractions were separated on SDS-polyacrylamide gels with 2,2,2-trichloroethanol ([Ladner-Keay et al., 2018]) and visualized with ultraviolet light.

Xenopus XTC cells = conditions: ref Belin et al., 2014; cited from earlier work
From the text: (§3) However, in Xenopus XTC cells, expr ...

cells = conditions: ref Vosatka et al., 2022; cited from earlier work
From the text: as §3

Drosophila = conditions: ref Spracklen et al., 2014; cited from earlier work
From the text: as §3

primary neurons = conditions: ref Patel et al., 2017; cited from earlier work
From the text: as §3

F-actin [4] = experiment: Cryo-EM of peptide mixed with F-actin; format: binding, rabbit skeletal muscle α-actin
Method: as §2
Actin filaments were prepared as for cosedimentation assays. Shortly before plunging, F-actin was diluted to 6 µM with F-buffer. […] 3 μl of sample was applied onto a freshly glow-discharged copper R2/1 300 mesh grid (Quantifoil), blotted for 8 s on both sides with blotting force −15, and plunge-frozen in liquid ethane using the Vitrobot Mark IV system (Thermo Fisher Scientific) at 13°C and 100% humidity.
The datasets were collected using a Talos Arctica transmission electron microscope (Thermo Fisher Scientific) equipped with an XFEG at 200 kV using the automated data-collection software EPU version 2.7 (Thermo Fisher Scientific). Two images per hole with a defocus range of −0.5 to −2.5 µm were collected with a K3 detector (Gatan) operated in super-resolution mode. […] After motion correction was performed in Relion (RRID:SCR_016274) version 3.1, the micrographs were imported into Cryosparc for patch CTF estimation. […]
Before deposition, the structures were refined in real space in Phenix (RRID:SCR_014224) ([Liebschner et al., 2019]) with secondary structure and reference model restraints. The statistics presented in Table 1 were calculated by MolProbity (RRID:SCR_014226) ([Williams et al., 2018]).

## Lifeact: 17-amino acid peptide derived from the N-terminus of Saccharomyces cerevisiae actin-binding protein 140 (Abp140) [reference compound]
[1]
  effect on actin-dependent morphogenesis: dramatically altered actin-dependent morphogenesis
Actin filaments
  competition for binding site on actin filaments: competes with cofilin, myosin, and other actin-binding factors for the same binding site on actin filaments
[2]; peptide 1 µM, Repeat 1
  ADP-ribosylation level: 0,978733
[2]; peptide 1 µM, Repeat 2
  ADP-ribosylation level: 0,811616
[2]; peptide 1 µM, Repeat 3
  ADP-ribosylation level: 1,268379
[2]; peptide 3 µM, Repeat 1
  ADP-ribosylation level: 0,825802
[2]; peptide 3 µM, Repeat 2
  ADP-ribosylation level: 0,671345
[2]; peptide 3 µM, Repeat 3
  ADP-ribosylation level: 1,323177
[2]; peptide 10 µM, Repeat 1
  ADP-ribosylation level: 0,671724
[2]; peptide 10 µM, Repeat 2
  ADP-ribosylation level: 1,132312
[2]; peptide 10 µM, Repeat 3
  ADP-ribosylation level: 0,970817
[2]; peptide 30 µM, Repeat 1
  ADP-ribosylation level: 0,313245
[2]; peptide 30 µM, Repeat 2
  ADP-ribosylation level: 0,438167
[2]; peptide 30 µM, Repeat 3
  ADP-ribosylation level: 0,331448
[2]; peptide 100 µM, Repeat 1
  ADP-ribosylation level: 0
[2]; peptide 100 µM, Repeat 2
  ADP-ribosylation level: 0,032044
[2]; peptide 100 µM, Repeat 3
  ADP-ribosylation level: 0,093063
[2]; peptides up to 100 µM
  effect on TcART modification of F-actin (in words): inhibited TcART activity in a similar dose-dependent manner
F-actin [3]; peptide 10 µM, Repeat 1
  F-actin in the pellet: 0,07218
F-actin [3]; peptide 10 µM, Repeat 2
  F-actin in the pellet: 0,09382
F-actin [3]; peptide 10 µM, Repeat 3
  F-actin in the pellet: 0,137443
F-actin [3]; peptide 100 µM, Repeat 1
  F-actin in the pellet: 0,1046
F-actin [3]; peptide 100 µM, Repeat 2
  F-actin in the pellet: 0,117135
F-actin [3]; peptide 100 µM, Repeat 3
  F-actin in the pellet: 0,14654
F-actin [3]; peptide 1000 µM, Repeat 1
  F-actin in the pellet: 0,339777
F-actin [3]; peptide 1000 µM, Repeat 2
  F-actin in the pellet: 0,164721
F-actin [3]; peptide 1000 µM, Repeat 3
  F-actin in the pellet: 0,309232

## MARPRGAGPCSPGLERAPRRSVGELRLLFEARCAAVAAAAAAG [F-tractin, 43 amino acid peptide, residues 10–52 of rat inositol 1,4,5-trisphosphate 3-kinase A; EGFP fusion in cell assays]
F-actin [3]; in vitro, up to 100 µM, low-speed centrifugation and cryo-EM
  actin bundling (in words): strong bundling effect on F-actin
F-actin [3]; peptide 1 µM, Repeat 1
  F-actin in the pellet: 0,052087
F-actin [3]; peptide 1 µM, Repeat 2
  F-actin in the pellet: 0,032888
F-actin [3]; peptide 1 µM, Repeat 3
  F-actin in the pellet: 0,047528
F-actin [3]; peptide 10 µM, Repeat 1
  F-actin in the pellet: 0,092603
F-actin [3]; peptide 10 µM, Repeat 2
  F-actin in the pellet: 0,600815
F-actin [3]; peptide 10 µM, Repeat 3
  F-actin in the pellet: 0,323365
F-actin [3]; peptide 100 µM, Repeat 1
  F-actin in the pellet: 0,999376
F-actin [3]; peptide 100 µM, Repeat 2
  F-actin in the pellet: 0,989657
F-actin [3]; peptide 100 µM, Repeat 3
  F-actin in the pellet: 0,931572
Xenopus XTC cells
  effect of expression on actin structures: induced radial actin bundles and longer filopodia
cells
  cell stiffness and cell migration: increase in cell stiffness and reduction in cell migration
Drosophila
  effect on fertility and actin in Drosophila oogenesis: without causing female sterility or significant actin defects
Primary neurons
  reporting on F-actin organization in primary neurons: without notable effects on cell function
F-actin [4]; estimated from alignment-free 3D classification, 100 μM peptide
  F-tractin occupancy on F-actin: ~ 50%
F-actin [4]; preformed F-actin incubated with 100 μM peptide
  appearance of actin filaments by cryo-EM: large heterogeneous bundles instead of single actin filaments
